Assays:
[1] = biological target: ALK kinase (Homo sapiens, UniProt Q9UM73); test: ALK kinase assay; type: biochemical; details: ALK kinase assay; read-out: ALK (IC50 grading)
Protocol: An in vitro assay which determines the ability of a test compound to inhibit ALK kinase. a) kinase-tagged T7 phage strains were prepared in an E. coli host derived from the BL21 strain. E. coli were grown to log-phase and infected with T7 phage and incubated with shaking at 32° C. until lysis. The lysates were centrifuged and filtered to remove cell debris. The remaining kinases were produced in HEK-293 cells and subsequently tagged with DNA for qPCR detection. […] The liganded beads were blocked with excess biotin and washed with blocking buffer (SeaBlock (Pierce), 1% BSA, 0.05% Tween 20, 1 mM DTT) to remove unbound ligand and to reduce non-specific binding. […] All reactions were performed in polystyrene 96-well plates in a final volume of 0.135 ml. […] The kinase concentration in the eluates was measured by qPCR. […]
b) An alternative method to conduct the kinase assay with the following condition and procedure: Reagent: Base Reaction buffer; 20 mM Hepes (pH 7.5), 10 mM MgCl2, 1 mM EGTA, 0.02% Brij35, 0.02 mg/ml BSA, 0.1 mM Na3VO4, 2 mM DTT, 1% DMSO.
1. Preparing indicated substrate in freshly prepared Base Reaction Buffer
2. Delivering any required cofactors to the substrate solution above
3. Delivering indicated kinase into the substrate solution and gently mix
4. Delivering compounds in DMSO into the kinase reaction mixture
5. Delivering ^33P-ATP (specific activity 0.01 μCi/μl final) into the reaction mixture to initiate the reaction.
6. Incubating kinase reaction for 120 min. at room temperature
7. Reactions are spotted onto P81 ion exchange paper (Whatman #3698-915)
8. Washing filters extensively in 0.75% Phosphoric acid. […]
c) An alternative method to conduct the kinase assay with the following condition and procedure: The assay was performed using Kinase-Glo Plus luminescence kinase assay kit (Promega). It measures kinase activity by quantitating the amount of ATP remaining in solution following a kinase reaction. The luminescent signal from the assay is correlated with the amount of ATP present and is inversely correlated with the amount of kinase activity.
The compound were diluted in 10% DMSO and 5 μl of the dilution was added to a 50 μl reaction so that the final concentration of DMSO is 1% in all of reactions. All of the enzymatic reactions were conducted at 30° C. for 40 minutes. The 50 μl reaction mixture contains 40 mM Tris, pH 7.4, 10 mM MgCl2, 0.1 mg/ml BSA, 1 mM DTT, 0.2 mg/ml substrate peptide, 10 μM ATP and ALK (Table 2.3.1). After the enzymatic reaction, 50 μl of Kinase-Glo Plus Luminescence kinase assay solution (Promega) was added to each reaction and incubate the plate for 5 minutes at room temperature. Luminescence signal was measured using a BioTek Synergy 2 microplate reader. ALK activity assays were performed in duplicate at each concentration. The luminescence data were analyzed using the computer software, Graphpad Prism. The difference between luminescence intensities in the absence of ALK (Lut) and in the presence of ALK (Luc) was defined as 100% activity (Lut−Luc). Using luminescence signal (Lu) in the presence of the compound, % activity was calculated as % activity={(Lut−Lu)/(Lut−Luc)}×100%, where Lu=the luminescence intensity in the presence of the compound (all percent activities below zero were shown zero in the table). The values of % activity versus a series of compound concentrations were then plotted using non-linear regression analysis of Sigmoidal dose-response curve generated with the equation Y=B+(T−B)/1+10^((Log EC50−X)×Hill Slope), where Y=percent activity, B=minimum percent activity, T=maximum percent activity, X=logarithm of compound and Hill Slope=slope factor or Hill coefficient. The IC50 value was determined by the concentration causing a half-maximal percent activity.

[2] = biological target: T1, BAF3-EML4-ALK stable cell line (Homo sapiens, UniProt Q9UM73); test: BAF3-EML4-ALK cell assay (MTT cell proliferation); type: cell-based; details: 72 hours, read-out: BAF3-EML4-ALK Cell (IC50 grading)
T1 construct: fused on or other part: Q9HC35 (Echinoderm microtubule-associated protein-like 4)
Protocol: BAF3-EML4-ALK Cell Assay:
A method of establishing BAF3-EML4-ALK stable cell line: Transfer 5×10^6 BAF3 cells to a new tube, pellet the cells, and remove PBS by aspiration.; Resuspend the cells in 1 ml electroporation buffer, this provides 5×10^6 of cells; Transfer 200 μl of cell suspension to EP tube, add 5 ug DNA, flip and place it on ice for 10 min; Pipet the 200 μl cell suspension into 2 mm electroporation cuvette; Place the cuvette into shockpod, close the lid, and press the PULSE button; Set parameters: Expentional decay pulse: VOL=200 V; CAP=900 uF, RES=1000Ω; Transfer all cells from electroporation cuvette to 6 well plate, adding 2 ml DMEMF12 containing 5 ng/ml IL3, 24 h later, replace the medium with DMEM F12 containing 2 μg/ml blasticidin S and 5 ng/ml IL3, maintain for 3 days; change the medium with DMEM F12 containing 2 ug/ml blasticidin S and 2.5 ng/ml IL3, maintain 3 days; change the medium with DMEM F12 containing 2 ug/Ml blasticidin S, maintain to culture.
MTT Cell proliferation assay: 5×10^3 per well cell with 100 μl medium was seeded in 96-well plate; 24 hours later, 100 μl fresh medium with various concentration of compounds; After the cells were treated by compounds for 72 hours, add 20 μl MTT (5 mg/ml) into each wells; The plate is incubated at 37° C. for 4 hours; Centrifuge the plate at 800 g for 10 mins, Aspirated the medium, add 150 μl DMSO into each well. Shake plates gently for 10 mins, Measure the absorbance at 570 nm on plate reader; IR=(WC−WT)/WC.

[3] = PK (pharmacokinetic) study in rat, cassette dosing; type: in vivo; details: male, Wistar, plasma
Protocol: A representative protocol for the PK (pharmacokinetic) is as followed: Animals used were Wistar rat, male and weight about 300-359 grams. Compound 21 and 22 were given either IV or oral to the same animals by cassette dosing. The dose for each compound is 1 mg/kg (volume 5 ml/kg) IV and 2 mg/kg (volume 10 ml/kg) oral. The formulation for IV was in PBS, the pH is adjusted by dilute HCl until compounds were totally dissolved. 0.5% Na-CMC suspension was used for the oral formulation. Sample collection: for IV route, plasma sample were collected at the time point 0.083, 0.25, 0.5, 1, 1.5, 2, 4, 6, 8, 12, 24 h. For oral route, plasma sample were collected at the time point 0.167, 0.33, 0.5, 1, 2, 4, 6, 8, 12, 24 h. Analysis: LC-MS/MS is used to calculate PK parameters: t1/2, tmax, Cmax, Vss and AUC etc.

T1 sequence (Q9UM73 whole entry, change not shown, the tested form may be a part): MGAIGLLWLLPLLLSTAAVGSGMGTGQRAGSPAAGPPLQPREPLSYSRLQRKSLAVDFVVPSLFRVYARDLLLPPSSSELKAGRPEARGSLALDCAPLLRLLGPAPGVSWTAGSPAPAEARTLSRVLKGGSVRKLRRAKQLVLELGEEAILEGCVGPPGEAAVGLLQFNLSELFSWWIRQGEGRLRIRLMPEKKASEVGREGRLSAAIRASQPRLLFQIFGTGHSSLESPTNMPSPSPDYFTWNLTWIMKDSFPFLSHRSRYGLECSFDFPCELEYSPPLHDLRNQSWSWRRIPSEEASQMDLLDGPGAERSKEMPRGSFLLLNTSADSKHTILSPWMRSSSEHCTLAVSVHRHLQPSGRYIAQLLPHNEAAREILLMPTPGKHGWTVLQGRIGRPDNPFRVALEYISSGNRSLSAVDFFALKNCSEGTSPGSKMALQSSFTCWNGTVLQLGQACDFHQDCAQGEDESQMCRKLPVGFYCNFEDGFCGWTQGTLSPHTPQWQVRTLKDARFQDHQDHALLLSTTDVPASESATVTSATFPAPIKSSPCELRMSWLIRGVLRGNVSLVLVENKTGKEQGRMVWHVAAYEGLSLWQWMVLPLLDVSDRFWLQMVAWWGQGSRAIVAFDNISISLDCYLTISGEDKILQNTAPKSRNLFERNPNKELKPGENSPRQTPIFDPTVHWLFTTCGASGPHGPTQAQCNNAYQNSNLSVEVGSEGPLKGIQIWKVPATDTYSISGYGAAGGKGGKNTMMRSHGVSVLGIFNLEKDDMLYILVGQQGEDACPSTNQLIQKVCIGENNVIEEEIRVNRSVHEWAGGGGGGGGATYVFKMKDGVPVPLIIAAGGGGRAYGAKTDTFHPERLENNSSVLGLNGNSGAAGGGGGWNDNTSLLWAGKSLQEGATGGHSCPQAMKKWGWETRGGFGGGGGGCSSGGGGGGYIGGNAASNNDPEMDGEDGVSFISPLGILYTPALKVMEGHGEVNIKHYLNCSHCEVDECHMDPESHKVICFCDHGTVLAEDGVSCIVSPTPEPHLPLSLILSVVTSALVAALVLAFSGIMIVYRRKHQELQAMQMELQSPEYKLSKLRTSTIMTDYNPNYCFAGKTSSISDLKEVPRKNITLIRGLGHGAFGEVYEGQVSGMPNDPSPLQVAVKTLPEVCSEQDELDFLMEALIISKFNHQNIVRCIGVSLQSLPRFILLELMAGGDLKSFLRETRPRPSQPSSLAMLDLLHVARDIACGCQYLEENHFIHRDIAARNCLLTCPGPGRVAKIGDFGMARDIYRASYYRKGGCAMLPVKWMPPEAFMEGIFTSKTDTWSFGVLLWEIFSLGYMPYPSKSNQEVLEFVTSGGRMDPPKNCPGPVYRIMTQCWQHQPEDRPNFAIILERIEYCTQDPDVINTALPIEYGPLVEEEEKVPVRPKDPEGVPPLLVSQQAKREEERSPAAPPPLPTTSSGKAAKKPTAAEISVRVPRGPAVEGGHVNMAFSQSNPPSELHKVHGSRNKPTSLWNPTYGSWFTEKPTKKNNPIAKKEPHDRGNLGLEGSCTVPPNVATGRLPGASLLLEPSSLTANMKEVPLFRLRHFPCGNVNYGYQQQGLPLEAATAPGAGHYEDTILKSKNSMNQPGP
Sequence of ALK kinase (Q9UM73 19-1620): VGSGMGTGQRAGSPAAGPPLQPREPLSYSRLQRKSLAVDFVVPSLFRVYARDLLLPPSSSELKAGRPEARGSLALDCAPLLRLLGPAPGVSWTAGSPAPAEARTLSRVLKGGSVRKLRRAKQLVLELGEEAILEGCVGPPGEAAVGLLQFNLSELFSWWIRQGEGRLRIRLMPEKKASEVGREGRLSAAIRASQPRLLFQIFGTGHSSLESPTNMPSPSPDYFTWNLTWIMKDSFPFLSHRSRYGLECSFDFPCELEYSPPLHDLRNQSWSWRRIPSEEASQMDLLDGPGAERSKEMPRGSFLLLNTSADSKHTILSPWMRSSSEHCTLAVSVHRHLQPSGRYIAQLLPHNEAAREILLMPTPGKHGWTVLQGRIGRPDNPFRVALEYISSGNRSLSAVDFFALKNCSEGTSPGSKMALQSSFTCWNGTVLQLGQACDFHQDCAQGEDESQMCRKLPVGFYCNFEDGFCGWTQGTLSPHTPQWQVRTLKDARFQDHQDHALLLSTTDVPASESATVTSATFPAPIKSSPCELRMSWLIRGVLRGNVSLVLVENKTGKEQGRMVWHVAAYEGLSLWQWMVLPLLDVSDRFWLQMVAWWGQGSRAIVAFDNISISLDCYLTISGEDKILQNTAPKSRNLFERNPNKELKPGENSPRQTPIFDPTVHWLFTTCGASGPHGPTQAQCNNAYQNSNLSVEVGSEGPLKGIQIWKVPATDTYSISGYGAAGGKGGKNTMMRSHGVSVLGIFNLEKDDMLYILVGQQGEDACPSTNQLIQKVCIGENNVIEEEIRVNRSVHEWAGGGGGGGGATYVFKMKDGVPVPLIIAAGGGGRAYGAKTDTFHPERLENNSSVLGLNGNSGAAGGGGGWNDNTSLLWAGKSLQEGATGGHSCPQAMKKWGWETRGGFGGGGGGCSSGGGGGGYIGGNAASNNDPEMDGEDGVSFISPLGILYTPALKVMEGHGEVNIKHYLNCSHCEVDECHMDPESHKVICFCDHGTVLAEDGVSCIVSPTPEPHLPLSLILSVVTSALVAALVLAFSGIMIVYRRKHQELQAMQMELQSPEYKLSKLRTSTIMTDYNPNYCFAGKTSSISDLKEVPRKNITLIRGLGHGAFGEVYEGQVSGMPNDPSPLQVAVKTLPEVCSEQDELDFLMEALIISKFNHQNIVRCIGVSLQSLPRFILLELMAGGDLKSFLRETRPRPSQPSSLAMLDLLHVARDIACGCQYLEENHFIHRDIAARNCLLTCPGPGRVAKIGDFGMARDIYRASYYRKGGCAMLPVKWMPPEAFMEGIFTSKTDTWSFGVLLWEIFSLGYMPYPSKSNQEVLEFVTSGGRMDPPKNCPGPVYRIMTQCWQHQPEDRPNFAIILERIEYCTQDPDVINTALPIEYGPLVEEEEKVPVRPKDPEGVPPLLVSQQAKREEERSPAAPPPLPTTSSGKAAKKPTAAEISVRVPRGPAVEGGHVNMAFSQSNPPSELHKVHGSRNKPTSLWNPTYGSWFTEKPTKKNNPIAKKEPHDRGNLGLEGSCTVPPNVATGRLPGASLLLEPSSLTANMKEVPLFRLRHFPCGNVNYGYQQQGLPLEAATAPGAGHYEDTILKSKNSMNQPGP

SMILES	IC50 [1] [nM]	GI50 [2] [nM]	also measured
[2H]C([2H])([2H])N1CCC(n2cc(-c3cnc(N)c(O[C@@H](C)c4c(Cl)ccc(F)c4Cl)c3)cn2)CC1 [Compound 15, (S)-3-(1-(2,6-dichloro-3-fluorophenyl)ethoxy)-5-(1-(1-d3-methyl-piperidin-4-yl)-1H-pyrazol-4-yl)pyridin-2-amine]	100 to 1000	≤ 1000	
C[C@H](Oc1cc(-c2cnn(C3CCN(C)CC3)c2)cnc1N)c1c(Cl)ccc(F)c1Cl [Compound 14, (S)-3-(1-(2,6-dichloro-3-fluorophenyl)ethoxy)-5-(1-(1-methylpiperidin-4-yl)-1H-pyrazol-4-yl)pyridin-2-amine]	100 to 1000	≤ 1000	
C[C@@H](Oc1cc(-c2cnn(C3CCN(C)CC3)c2)cnc1N)c1c(Cl)ccc(F)c1Cl [Compound 19, (R)-3-(1-(2,6-dichloro-3-fluorophenyl)ethoxy)-5-(1-(1-methylpiperidin-4-yl)-1H-pyrazol-4-yl)pyridin-2-amine]	≤ 100	≤ 100	
CCN1CCC(n2cc(-c3cnc(N)c(O[C@H](C)c4c(Cl)ccc(F)c4Cl)c3)cn2)CC1 [Compound 21, (R)-3-(1-(2,6-dichloro-3-fluorophenyl)ethoxy)-5-(1-(1-ethylpiperidin-4-yl)-1H-pyrazol-4-yl)pyridin-2-amine]	≤ 100	≤ 100	AUC(0-inf) ([3]; IV cassette 1 mg/kg): 443 ng·h/mL; AUC(0-t) ([3]; IV cassette 1 mg/kg): 442 ng·h/mL; Cmax ([3]; IV cassette 1 mg/kg): 317 ng/mL; MRT ([3]; IV cassette 1 mg/kg): 2.89 h; Tmax ([3]; IV cassette 1 mg/kg): 0.083 h; clearance ([3]; IV cassette 1 mg/kg): 37.7 mL/min/kg; half-life ([3]; IV cassette 1 mg/kg): 2.89 h; AUC(0-inf) ([3]; oral cassette 2 mg/kg): 154 ng·h/mL; AUC(0-t) ([3]; oral cassette 2 mg/kg): 148 ng·h/mL; Cmax ([3]; oral cassette 2 mg/kg): 22.9 ng/mL; MRT ([3]; oral cassette 2 mg/kg): 4.97 h; Tmax ([3]; oral cassette 2 mg/kg): 4 h; half-life ([3]; oral cassette 2 mg/kg): 2.99 h; bioavailability ([3]; oral cassette 2 mg/kg vs IV 1 mg/kg, read-out: F (bioavailability)): 16.8%
CCN1CCC(n2cc(-c3cnc(N)c(O[C@@H](C)c4c(Cl)ccc(F)c4Cl)c3)cn2)CC1 [Compound 16, (S)-3-(1-(2,6-dichloro-3-fluorophenyl)ethoxy)-5-(1-(1-ethylpiperidin-4-yl)-1H-pyrazol-4-yl)pyridin-2-amine]	100 to 1000	≤ 1000	
[2H]C([2H])([2H])C([2H])([2H])N1CCC(n2cc(-c3cnc(N)c(O[C@@H](C)c4c(Cl)ccc(F)c4Cl)c3)cn2)CC1 [Compound 17, (S)-3-(1-(2,6-dichloro-3-fluorophenyl)ethoxy)-5-(1-(1-d5-ethyl-piperidin-4-yl)-1H-pyrazol-4-yl)pyridin-2-amine]	100 to 1000	≤ 1000	
CCN1CCC(n2cc(-c3cnc(N)c(OC(C)c4c(Cl)ccc(F)c4Cl)c3)cn2)CC1 (centres unmarked) [Compound 7, 3-(1-(2,6-dichloro-3-fluorophenyl)ethoxy)-5-(1-(1-ethylpiperidin-4-yl)-1H-pyrazol-4-yl)pyridin-2-amine]	≤ 100	≤ 100	

More lines, main results first:

IC50 [1] [nM]	GI50 [2] [nM]	SMILES	also measured
100 to 1000	100 to 1000	CCN1CCC(n2cc(-c3cnc(NC(C)=O)c(OC(C)c4c(Cl)ccc(F)c4Cl)c3)cn2)CC1 (centres unmarked) [Compound 10, N-(3-(1-(2,6-dichloro-3-fluorophenyl)ethoxy)-5-(1-(1-ethylpiperidin-4-yl)-1H-pyrazol-4-yl)pyridin-2-yl)acetamide]	
100 to 1000	≤ 1000	CC(=O)Nc1ncc(-c2cnn(C3CCNCC3)c2)cc1O[C@@H](C)c1c(Cl)ccc(F)c1Cl [Compound 13, (S)—N-(3-(1-(2,6-dichloro-3-fluorophenyl)ethoxy)-5-(1-(piperidin-4-yl)-1H-pyrazol-4-yl)pyridin-2-yl)acetamide]	
≤ 1000	≤ 1000	CCNc1ncc(-c2cnn(C3CCNCC3)c2)cc1OC(C)c1c(Cl)ccc(F)c1Cl (centres unmarked) [Compound 11, 3-(1-(2,6-dichloro-3-fluorophenyl)ethoxy)-N-ethyl-5-(1-(piperidin-4-yl)-1H-pyrazol-4-yl)pyridin-2-amine]	
≤ 1000	≤ 1000	CCCNc1ncc(-c2cnn(C3CCNCC3)c2)cc1OC(C)c1c(Cl)ccc(F)c1Cl (centres unmarked) [Compound 12, 3-(1-(2,6-dichloro-3-fluorophenyl)ethoxy)-5-(1-(piperidin-4-yl)-1H-pyrazol-4-yl)-N-propylpyridin-2-amine]	
≤ 100	≤ 100	CC(=O)Nc1ncc(-c2cnn(C3CCNCC3)c2)cc1OC(C)c1c(Cl)ccc(F)c1Cl (centres unmarked) [Compound 9, N-(3-(1-(2,6-dichloro-3-fluorophenyl)ethoxy)-5-(1-(piperidin-4-yl)-1H-pyrazol-4-yl)pyridin-2-yl)acetamide]	
